*: point of attachment. CH2F = FC*

We go through 2 substances from PMC7281206, “Cysteine Cathepsins Inhibition Affects Their Expression and Human Renal Cancer Cell Phenotype” (Cancers, 2020).

A short description of one data set: Dispersibility in water. In kind it is physicochemical.
The test system of another data set is SNAIL1 in 769-P cells. The experiment in a line: SNAIL1 protein expression (western blot), 769-P. In kind it is cell-based, human. As to conditions: 72 h. On the procedure: These properties could be the result of the modulation of the effectors controlling EMT, as previously shown in other tumor models. To test this hypothesis, the cells were treated with the inhibitors for 24, 48, and 72 h by changing the media every day, and they were tested for E-cadherin and SNAIL1 expression (Figure 6; detail information of western blots can be seen in Supplementary Figure S7). Figure 6 Effects of the peptides on E-cadherin and SNAIL1 protein expression: (a,b) protein expression of E-cadherin and SNAIL1 in 769-P and (c,d) A498 cells after 24, 48, and 72 h of treatment with the peptides. Data are represented as mean ± SD of at least three replicates. Significance was calculated through one-way ANOVA, followed by Dunnet’s test. Cells were seeded in RPMI containing 10% FBS and cultured for 24 h. Next, 30 µM of inhibitors were added to the culture medium and incubated for 24, 48, and 72 h. Control cells were treated with 0.01% DMSO. At all time points the samples were lysed in 50 mM Tri-HCl (pH 8.0), 100 mM NaCl, 0.5% NP-40, 1% Triton X-100, 1× protease inhibitor cocktail (ThermoFisher, Waltham, MA, USA). The 50 µg of protein lysates were separated by electrophoresis on a 12% SDS-PAGE gel and transferred to the PFDF membranes. […] After an additional wash (three times with PBS), reactive bands were detected by chemiluminescence (Bio-Rad, Irvine, CA, USA). […]

Data set [1] deals with 769-P cells (endolysosomal compartment). In words: LysoTracker red fluorescence, 769-P. The following applies: 20 μM; 48 h; 75 nM LysoTracker red, 1 h, Ex/Em 570/600. In kind it is cell-based, human. On the procedure: First, 1.5 × 10^4 769-P or A498 cells were seeded in 96-well plates in full medium. The day after the cells were treated with the peptides for 3 consecutive days to establish 24, 48, and 72 h groups of treatment. LysoTracker Red fluorescence intensity was measured via microplate reader following the protocols described in [75] and applying Ex/Em = 570/600. The cells were incubated with 75 nM of LysoTracker red for 1 h. […]
Figure S6. The effect of the peptide inhibitors on human 769‐P and A498 renal cancer cell on
lysosomes integrity. (a) 769‐P and (b) A498 cells were treated with increasing doses of Ac‐PLVE‐FMK
(red bars) and Ac‐VLPE‐FMK (blue bars) (2.5–250 μM). NR uptake was measured after 24, 48, and 72
h via MTT assay. (c) LysoTracker red evaluation in 769‐P and (d) A498 cells after 24, 48, and 72 h with
the inhibitors (20 μM). Data represent the mean (± S.D.) of at least three independent experiments,
each performed in triplicate. […]

The test system of the next data set is 769-P cells. The experiment in a line: Cell viability with paclitaxel (MTT), 769-P. It is filed as cell-based, human. The following applies: peptide 20 µM combined with PXT 100 nM; versus PXT alone. On the procedure:
To evaluate the inhibitory properties of the peptides directly on the human renal cancer cells, we firstly assessed the impact of Ac-PLVE-FMK and Ac-VLPE-FMK on the cell viability of 769-P and A498 cells to determine the working concentrations for further experiments. […] Further experiments were performed using a concentration of 20 μM. To understand if the peptides could affect the activity of caspase proteases, we tested their effect on cell viability in combination with the chemotherapeutic paclitaxel (PXT) in both the cell lines. […] Next, we evaluated the effect of the peptides on renal cancer cell proteolytic activity against the fluorogenic probe Ac-PLVQ-AMC. In this case, 769-p and A498 cells were treated for 30 min with Ac-PLVE-FMK or Ac-VLPE-FMK and were then exposed for 10 min to the substrate Ac-PLVQ-AMC prior fluorescence microscopy analysis (Figure 3c,d).
The cell number was evaluated by counting viable cells using the MTT (3-(4,5-dimethylthiazol-2-yl)-2,5-diphenyltetrazolium bromide) colorimetric assay. A total of 2 × 10^4 cells/well were seeded on independent 96-well plates for each time point (0, 24, 48, and 72 h), with five replicates and treated with two inhibitors (2.5–250 μM). Then, 10 µL of the MTT reagent was added to each well, and cells were incubated for another 5 h. Next, the absorbance value was measured using a CLARIOstar® Plus plate reader (BMG Labtech, Ortenberg, Germany) at 490 nm. Triplicate wells were assayed, and S.D.s were determined.
Figure S3. Combined effect of PXT and the inhibitors on 769‐P proliferation: 769‐P cells were treated with 100 nM of PXT alone or in combination with 20 μM of Ac‐PLVE and Ac‐VLPE and cell proliferation was measured after 24, 48, and 72 h via MTT assay. Data represent the mean (± S.D.) of three independent experiments, each performed in triplicate.
Figure S4. Spheroids size and circularity: (a,b) size and circularity of 769‐P and (c,d) A498 cells upon treatment with Ac‐PLVE‐FMK and Ac‐VLPE‐FMK. Data represent the mean (± S.D.) of three independent experiments, each performed in triplicate. […]

For the substance Ac-VLPE-CH2F [Ac-VLPE-FMK], the Dispersibility in water result in “Dispersibility in water” is listed as “easily dispersed in water”. The SNAIL1 protein expression result in the data set on SNAIL1 in 769-P cells is “dropped to values more similar to the control”. The LysoTracker red fluorescence entry in data set [1] is given as “slightly increasing”. The “Effect on cell viability in combination with PXT” value with 769-P cells is “no significant differences were observed”.
The like results for Ac-PLVE-CH2F [Ac-PLVE-FMK] were, in that order, “easily dispersed in water”, “increased significantly at 72 h only in the case of 769P cells treated with AC-PLVE-FMK”, “slightly increasing” and “no significant differences were observed”.
